Melting point data for 47 molecules are collected here from a melting point compilation (Tetko et al.).

The structures appear in SMILES notation.

Consider `Cc1ccc(-n2nc(C(=O)O)c3ccccc3c2=O)cc1Cl`, for which the melting point (in general, the temperature, or range, at which the solid turns liquid) was in the range of 227 to 229 °C. As for `Cc1n[nH]c(C)c1S(=O)(=O)N1CCCCC1`, the figure is 72 to 73 °C. Then `NC1CCN(c2ccc(Cl)c(Cl)c2)C1=O` (configuration not stated), with 104 to 106 °C; and `O=C(O)c1ccccc1C(=O)c1ccc2c(c1)OCCO2`, with 168 to 170 °C. Then `O=C(O)c1cccc2[nH]ccc12`, with 213 to 214 °C. As for `CC(CCNC(N)=O)c1ccccc1` (configuration not stated), the melting point was in the range of 77 to 79 °C.

For `COc1ccc(-c2cc(C(=O)O)[nH]n2)cc1OC`, the melting point fell in the range of 225 to 227 °C. Turning to `CC(N)C(=O)Nc1ccc(-n2cncn2)cc1` (configuration not stated), the melting point was 169 to 171 °C. In turn, `NCC(O)CS(=O)(=O)c1cccs1` (configuration not stated) had a melting point of 111 to 113 °C.

Take `CCOC(=O)c1ccc(S(=O)(=O)Cl)cc1`: the melting point fell in the range of 49 to 51 °C. In turn, `O=Cc1cnc(-c2ccccc2)s1` returned a melting point of 87 to 89 °C. Consider `O=C(O)CC=Cc1ccc(F)cc1`, for which the melting point lay within 111 to 113 °C.

In turn, `Cc1cn2c(CO)c(C)nc2s1` had a melting point of 149 to 151 °C. Then `Cc1ccc2[nH]cc(C(=O)O)c2c1`, with 183 to 185 °C; and `CCOC(=O)N1CCC(NC(N)=S)CC1`, with 160 to 162 °C.

Regarding `OCC1CSCCN1` (configuration not stated), the melting point lay within 84 to 86 °C. As to `Cc1ccc(NC(=O)C(=O)NN)cc1`, the melting point fell in the range of 204 to 206 °C. `O=C(O)c1cccc(S(=O)(=O)N2CCc3ccccc32)c1` registered a melting point of 174 to 176 °C. Turning to `Sc1nnc(-c2cccs2)n1-c1ccccc1`, the melting point was 269 to 271 °C.

In the case of `CC(C)(C)OC(=O)NCCNS(=O)(=O)c1cccc(N)c1`, the melting point is 148 to 150 °C. Then `Cc1cc(C)n(Cc2cccc(C(N)=NO)c2)n1`, with 137 to 139 °C; and `Nc1cc(-c2cccc(Cl)c2)nn1-c1ccccc1`, with 118 to 120 °C; and `Nc1ccc(Cl)c(S(=O)(=O)N2CCOCC2)c1`, with 157 to 159 °C. In turn, `O=C1CCc2ccc(Br)cc2N1` yielded a melting point of 176 to 178 °C. With `CN(C(=O)c1ccc(N)cc1Cl)C1CCCCC1`, the melting point fell in the range of 172 to 174 °C.

In turn, `CC(C)(C)n1cc(C(=O)O)c(-c2ccccc2Cl)n1` returned a melting point of 164 to 166 °C.

In turn, `O=S1(=O)CCC(Cc2nnc(S)o2)C1` (configuration not stated) yielded a melting point of 160 to 162 °C. The molecule `Cc1oncc1C(=O)Nc1ccc(C(=O)O)cc1` came in with a melting point of 229 to 231 °C. As for `CC(C)(C)OC(=O)NC(CCS(C)(=O)=O)C(=O)O` (configuration not stated), the figure is 99 to 101 °C; as for `O=C(Nc1ccc(N2CCOCC2)nc1)OCC(F)(F)F`, 204 to 206 °C; as for `CCOc1ccc(C(C)(C)C(=O)O)cc1OCC`, 74 to 76 °C.

Regarding `O=C(O)Cc1csc(-c2cccc(Cl)c2)n1`, the melting point was 104 to 109 °C. As for `Cc1ccc(-n2c(N)nc3cc(C)ccc32)cc1`, the figure is 162 to 164 °C; as for `Cc1ncccc1C(=O)O`, 231 to 232 °C; as for `CC(=O)N1CCc2ccc(S(=O)(=O)Cl)cc21`, 144 to 146 °C. `COc1ccc(NC(=S)NN)cn1` displayed a melting point of 154 to 156 °C. `CCn1nc(C)c(S(=O)(=O)Cl)c1C` gave a melting point of 34 to 36 °C. Then `Cc1ccnc(Cl)c1O`, with 97 to 99 °C. As for `NC(=O)c1cccc(Oc2ccc(N)nc2)c1`, the figure is 162 to 164 °C; as for `CCOc1ccc2oc(C(=O)O)c(C)c2c1`, 155 to 165 °C.

In turn, `Cc1ccnc(NC(=O)C2CCNCC2)c1` displayed a melting point of 134 to 136 °C. For `ClCc1ncc(-c2ccccc2Br)o1`, the melting point lay in the range of 85 to 87 °C. With `Sc1nnc(CCCc2ccccc2)o1`, the melting point was in the range of 53 to 55 °C.

On to `NC(=O)NC1(C(=O)O)CCCCC1`, for which the melting point was in the range of 179 to 181 °C. For the molecule `Cc1ccc(NC2C=CS(=O)(=O)C2)cc1` (configuration not stated), the melting point is 115 to 117 °C.

In the case of `c1ccc2c(c1)NCCN2C1CC1`, the melting point lay within 58 to 60 °C. As for `Clc1nc(CSc2ccccc2)nc2sc3c(c12)CCCC3`, the figure is 55 to 57 °C.
